From PubChem BioAssay (NCI)
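Following 48 hours of exposure in 96-well plates, responses at five concentrations were used to interpolate endpoints linearly. GI50 is the concentration that inhibits growth by half. At the TGI there is no net growth.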

Tests used:
Assay in all cases: NCI anticancer screen, dose series, 48 h
[1] = system: 786-0 renal
[2] = system: A498 renal
[3] = system: A549 NSCLC
[4] = system: ACHN renal
[5] = system: BT-549 breast
[6] = system: CAKI-1 renal
[7] = system: CCRF-CEM leukemia
[8] = system: COLO 205 colon
[9] = system: DU-145 prostate
[10] = system: EKVX NSCLC
[11] = system: HCC-2998 colon
[12] = system: HCT-116 colon
[13] = system: HCT-15 colon
[14] = system: HOP-62 NSCLC
[15] = system: HOP-92 NSCLC
[16] = system: HS 578T breast
[17] = system: HT29 colon
[18] = system: IGROV1 ovarian
[19] = system: K-562 leukemia
[20] = system: KM12 colon
[21] = system: LOX IMVI melanoma
[22] = system: MALME-3M melanoma
[23] = system: MCF7 breast
[24] = system: MDA-MB-231 breast
[25] = system: MDA-MB-435
[26] = system: MOLT-4 leukemia
[27] = system: NCI-H226 lung
[28] = system: NCI-H23 lung
[29] = system: NCI-H460 lung
[30] = system: NCI-H522 lung
[31] = system: NCI/ADR-RES ovarian
[32] = system: OVCAR-3 ovarian
[33] = system: OVCAR-4 ovarian
[34] = system: OVCAR-5 ovarian
[35] = system: OVCAR-8 ovarian
[36] = system: PC-3 prostate
[37] = system: RPMI-8226 leukemia
[38] = system: RXF 393 renal
[39] = system: SF-268 CNS
[40] = system: SF-295 CNS
[41] = system: SF-539 CNS
[42] = system: SK-MEL-2 melanoma
[43] = system: SK-MEL-28 melanoma
[44] = system: SK-MEL-5 melanoma
[45] = system: SK-OV-3 ovarian
[46] = system: SN12C renal
[47] = system: SNB-19 CNS
[48] = system: SNB-75 CNS
[49] = system: SR leukemia
[50] = system: SW-620 colon
[51] = system: T-47D breast
[52] = system: TK-10 renal
[53] = system: U251 CNS
[54] = system: UACC-257 melanoma
[55] = system: UACC-62 melanoma
[56] = system: UO-31 renal

Oc1ccccc1/C=N/Nc1nc2ccccc2s1
GI50 [1]: 7.96 µM
TGI [1]: 89 µM
GI50 [2]: 32.4 µM
TGI [2]: > 100 µM
GI50 [3]: 6.52 µM
TGI [3]: > 100 µM
GI50 [4]: 6.14 µM
TGI [4]: > 100 µM
GI50 [5]: > 100 µM
TGI [5]: > 100 µM
GI50 [6]: 2.95 µM
TGI [6]: > 100 µM
GI50 [7]: 4.37 µM
TGI [7]: > 100 µM
GI50 [8]: 4.7 µM
TGI [8]: > 100 µM
GI50 [9]: 9.35 µM
TGI [9]: > 100 µM
GI50 [10]: 8.73 µM
TGI [10]: > 100 µM
GI50 [11]: 5.37 µM
TGI [11]: > 100 µM
GI50 [12]: 2.85 µM
TGI [12]: > 100 µM
GI50 [13]: 2.17 µM
TGI [13]: > 100 µM
GI50 [14]: 5.56 µM
TGI [14]: > 100 µM
GI50 [15]: 0.74 µM
TGI [15]: 19.5 µM
GI50 [16]: 8.84 µM
TGI [16]: 58 µM
GI50 [17]: 21.1 µM
TGI [17]: > 100 µM
GI50 [18]: 2.77 µM
TGI [18]: > 100 µM
GI50 [19]: 6.48 µM
TGI [19]: > 100 µM
GI50 [20]: 3.1 µM
TGI [20]: > 100 µM
GI50 [21]: 4.3 µM
TGI [21]: > 100 µM
GI50 [22]: 30 µM
TGI [22]: > 100 µM
GI50 [23]: 1.16 µM
TGI [23]: > 100 µM
GI50 [24]: 2.49 µM
TGI [24]: > 100 µM
GI50 [25]: > 100 µM
TGI [25]: > 100 µM
GI50 [26]: 4.4 µM
TGI [26]: > 100 µM
GI50 [27]: 10.7 µM
TGI [27]: > 100 µM
GI50 [28]: 23.3 µM
TGI [28]: > 100 µM
GI50 [29]: 3.41 µM
TGI [29]: > 100 µM
GI50 [30]: 4.74 µM
TGI [30]: > 100 µM
GI50 [31]: 6.1 µM
TGI [31]: > 100 µM
GI50 [32]: 2.46 µM
TGI [32]: 34.7 µM
GI50 [33]: 2.31 µM
TGI [33]: > 100 µM
GI50 [34]: > 100 µM
TGI [34]: > 100 µM
GI50 [35]: 12 µM
TGI [35]: > 100 µM
GI50 [36]: 11 µM
TGI [36]: > 100 µM
GI50 [37]: 4.7 µM
TGI [37]: > 100 µM
GI50 [38]: 13.7 µM
TGI [38]: 39 µM
GI50 [39]: 3.8 µM
TGI [39]: > 100 µM
GI50 [40]: 5.3 µM
TGI [40]: > 100 µM
GI50 [41]: 4.67 µM
TGI [41]: > 100 µM
GI50 [42]: 8.74 µM
TGI [42]: > 100 µM
GI50 [43]: 89 µM
TGI [43]: > 100 µM
GI50 [44]: 7.36 µM
TGI [44]: > 100 µM
GI50 [45]: 15.2 µM
TGI [45]: > 100 µM
GI50 [46]: 22.9 µM
TGI [46]: > 100 µM
GI50 [47]: 18.7 µM
TGI [47]: > 100 µM
GI50 [48]: 6.55 µM
TGI [48]: 32.2 µM
GI50 [49]: 7.71 µM
TGI [49]: > 100 µM
GI50 [50]: 16.3 µM
TGI [50]: > 100 µM
GI50 [51]: 2.11 µM
TGI [51]: > 100 µM
GI50 [52]: 4.79 µM
TGI [52]: > 100 µM
GI50 [53]: 8.1 µM
TGI [53]: > 100 µM
GI50 [54]: 8.87 µM
TGI [54]: > 100 µM
GI50 [55]: 8.97 µM
TGI [55]: > 100 µM
GI50 [56]: 4.86 µM
TGI [56]: > 100 µM
